# Patent US20020035061A1, “COMPOSITIONS AND METHODS FOR TREATING INFECTIONS USING CATIONIC PEPTIDES ALONE OR IN COMBINATION WITH ANTIBIOTICS” (priority 1996, published 2002)
# Columns and labels:
# Experiment in all cases: microbe, parasite or virus in culture
# Format in all cases: cell-based
# [1] = tested on: microorganisms with acquired resistance; conditions: for Peptide MIC: in µg/mL
# [2] = tested on: vancomycin / teicoplanin resistant enterococci; conditions: for Peptide MIC Alone: Amikacin section; for FIC: peptide + Amikacin
# [3] = tested on: inherently resistant microorganisms; conditions: S. aureus MRSA
sequence,measurement,setting,value
KKWWRRALQGLKTAGPAIQSVLNK [MBI 21A2],Gentamicin MIC + Peptide,[1]; A. calcoaceticus AC001,4 µg/mL
same,Peptide MIC + Gentamicin,[1]; A. calcoaceticus AC001,8 µg/mL
same,Peptide MIC Alone,"[1]; A. calcoaceticus AC001, Gentamicin section",16 µg/mL
same,Peptide MIC + Piperacillin,[1]; E. coli 1,2 µg/mL
same,Piperacillin MIC + Peptide,[1]; E. coli 1,8 µg/mL
same,Peptide MIC Alone,"[1]; E. coli 1, Piperacillin section",4 µg/mL
same,Peptide MIC + Piperacillin,[1]; H. influenzae 1,64 µg/mL
same,Piperacillin MIC + Peptide,[1]; H. influenzae 1,4 µg/mL
same,Peptide MIC Alone,"[1]; H. influenzae 1, Piperacillin section",>128 µg/mL
same,Peptide MIC + Piperacillin,[1]; H. influenzae 2,64 µg/mL
same,Piperacillin MIC + Peptide,[1]; H. influenzae 2,4 µg/mL
same,Peptide MIC Alone,"[1]; H. influenzae 2, Piperacillin section",>128 µg/mL
same,Amikacin MIC + Peptide,[1]; P. aeruginosa PA022,16 µg/mL
same,Gentamicin MIC + Peptide,[1]; P. aeruginosa PA022,2 µg/mL
same,Peptide MIC + Amikacin,[1]; P. aeruginosa PA022,2 µg/mL
same,Peptide MIC + Gentamicin,[1]; P. aeruginosa PA022,4 µg/mL
same,Peptide MIC Alone,"[1]; P. aeruginosa PA022, Amikacin section",8 µg/mL
same,Peptide MIC Alone,"[1]; P. aeruginosa PA022, Gentamicin section",8 µg/mL
same,Ciprofloxacin MIC + Peptide,[1]; P. aeruginosa PA41,1 µg/mL
same,Peptide MIC + Ciprofloxacin,[1]; P. aeruginosa PA41,16 µg/mL
same,Peptide MIC Alone,"[1]; P. aeruginosa PA41, Ciprofloxacin section",64 µg/mL
same,Ciprofloxacin MIC + Peptide,[1]; P. aeruginosa PA77,0.25 µg/mL
same,Peptide MIC + Ciprofloxacin,[1]; P. aeruginosa PA77,32 µg/mL
same,Peptide MIC Alone,"[1]; P. aeruginosa PA77, Ciprofloxacin section",64 µg/mL
same,Peptide MIC,"[1]; P. aeruginosa, combination with Ciprofloxacin",16
same,Peptide MIC,"[1]; S. aureus, combination with Ciprofloxacin",4
same,Peptide MIC,"[1]; S. aureus, combination with Mupirocin",32
same,Peptide MIC + Piperacillin,[1]; S. maltophilia 3,16 µg/mL
same,Piperacillin MIC + Peptide,[1]; S. maltophilia 3,16 µg/mL
same,Peptide MIC Alone,"[1]; S. maltophilia 3, Piperacillin section",32 µg/mL
same,Peptide MIC + Piperacillin,[1]; S. maltophilia 11,64 µg/mL
same,Piperacillin MIC + Peptide,[1]; S. maltophilia 11,8 µg/mL
same,Peptide MIC Alone,"[1]; S. maltophilia 11, Piperacillin section",128 µg/mL
same,Gentamicin MIC + Peptide,[1]; S. maltophilia SMA020,0.125 µg/mL
same,Peptide MIC + Gentamicin,[1]; S. maltophilia SMA020,8 µg/mL
same,Peptide MIC Alone,"[1]; S. maltophilia SMA020, Gentamicin section",16 µg/mL
same,Gentamicin MIC + Peptide,[1]; S. maltophilia SMA021,0.125 µg/mL
same,Peptide MIC + Gentamicin,[1]; S. maltophilia SMA021,8 µg/mL
same,Peptide MIC Alone,"[1]; S. maltophilia SMA021, Gentamicin section",16 µg/mL
same,Peptide MIC + Piperacillin,[1]; S. marcescens 1,4 µg/mL
same,Piperacillin MIC + Peptide,[1]; S. marcescens 1,16 µg/mL
same,Peptide MIC Alone,"[1]; S. marcescens 1, Piperacillin section",>128 µg/mL
same,FIC,"[1]; peptide + Amikacin, P. aeruginosa PA022",0.50
same,FIC,"[1]; peptide + Ciprofloxacin, P. aeruginosa PA41",0.50
same,FIC,"[1]; peptide + Ciprofloxacin, P. aeruginosa PA77",0.63
same,FIC,"[1]; peptide + Gentamicin, A. calcoaceticus AC001",1.00
same,FIC,"[1]; peptide + Gentamicin, P. aeruginosa PA022",0.56
same,FIC,"[1]; peptide + Gentamicin, S. maltophilia SMA020",0.50
same,FIC,"[1]; peptide + Gentamicin, S. maltophilia SMA021",0.50
same,FIC,"[1]; peptide + Piperacillin, E. coli 1",0.53
same,FIC,"[1]; peptide + Piperacillin, H. influenzae 1",0.31
same,FIC,"[1]; peptide + Piperacillin, H. influenzae 2",0.28
same,FIC,"[1]; peptide + Piperacillin, S. maltophilia 3",0.75
same,FIC,"[1]; peptide + Piperacillin, S. maltophilia 11",0.75
same,FIC,"[1]; peptide + Piperacillin, S. marcescens 1",0.27
same,Amikacin MIC + Peptide,[2]; E. faecalis EFS008,8 µg/mL
same,Peptide MIC + Amikacin,[2]; E. faecalis EFS008,16 µg/mL
same,Peptide MIC Alone,[2]; E. faecalis EFS008,>128 µg/mL
same,Amikacin MIC + Peptide,[2]; E. faecium EFM020,2 µg/mL
same,Peptide MIC + Amikacin,[2]; E. faecium EFM020,64 µg/mL
same,Peptide MIC Alone,[2]; E. faecium EFM020,128 µg/mL
same,FIC,[2]; E. faecalis EFS008,0.19
same,FIC,[2]; E. faecium EFM020,0.56
same,Peptide MIC + Amikacin,[3],1 µg/mL
same,Peptide MIC + Piperacillin,[3],64 µg/mL
same,Peptide MIC Alone,[3]; Amikacin section,2 µg/mL
same,Peptide MIC Alone,[3]; Piperacillin section,>128 µg/mL
same,FIC,[3]; peptide + Amikacin,0.56
same,FIC,[3]; peptide + Piperacillin,0.25
